This is an account of results in the RepoRT retention time repository.

Molecules are shown by their SMILES.

The data set in a line: Agilent ZORBAX 300 SB-C18, 150 × 1 mm, 3.5 µm; A: water + 0.01% heptafluorobutyric acid; B: acetonitrile + 0.01% heptafluorobutyric acid; gradient (min/%B) 0/0 100/90. The note with it: stereoisomer not certain.
Consider `Cc1ccc2c(c1N)C(=O)c1ccccc1C2=O`, for which the LC retention time came out at 14.9 min.

On to `O=C1CCCc2c1[nH]c1ccccc21`, for which the LC retention time was 12.3 min. The figure for `OCc1cccnc1` is 4.28 min; for `Cc1cc(=O)[nH]c2c(C)c(N)ccc12` it is 8.42 min; for `O=CN1CCN(C=O)CC1` it is 3.45 min. `O=C(Oc1cccc2cccnc12)c1ccccc1`: the LC retention time turned out to be 13.8 min. The figure for `NC(=O)c1cc(O)c(O)c(O)c1` is 2.23 min.

For the molecule `OCCNCc1ccccc1`, the LC retention time amounted to 7.72 min. `Cn1c(=O)cc(C(=O)O)[nH]c1=O`: the LC retention time was 1.57 min. As for `CC(=NCCN1CCNCC1)C1=C(O)CC(C)(C)CC1=O`, the figure is 8.02 min. Consider `Cc1ccc(-c2nc3ccccc3s2)cc1`, for which the LC retention time worked out at 17.9 min. Turning to `CNc1ccccc1`, the LC retention time was 7.27 min. With `O=c1cc(O)c2ccccc2[nH]1`, the LC retention time was found to be 8.44 min. As for `C#CC(C)(CC)NC(=O)C(=Cc1ccccc1)NC(=O)c1ccccc1` (stereo not given), the LC retention time was determined as 13.5 min. `O=C(O)C1Cc2ccccc2CN1` (stereo not given): the LC retention time turned out to be 6.54 min. As for `CCCCN=CC1=C(O)CC(c2ccccc2)CC1=O` (stereo not given), the LC retention time stood at 13.3 min. `CC(CCc1ccccc1)NC(=S)Nc1cccnc1` (stereo not given): the LC retention time is 11.1 min.

Consider `Nc1ccc2cc[nH]c2c1`, for which the LC retention time stood at 7.56 min. `Cc1ccnc(C)c1`: the LC retention time is 6.8 min.

On to `Cc1ccc(-c2cnc3ccccc3[n+]2C)c(C)c1`, for which the LC retention time amounted to 10.4 min.

On to `O=C(O)c1cc(=O)[nH]c(=O)[nH]1`, for which the LC retention time was 1.33 min.

`CC(C)NCC(O)COc1cccc2ccccc12` (stereo not given): the LC retention time is 10.4 min. Take `CCOC(=O)C1(c2ccccc2)CCN(C)CC1`: the LC retention time amounted to 9.81 min.

Take `CC(C)Cc1nc2ccccc2n1CC(C)C`: the LC retention time turned out to be 10.9 min. Take `O=C1CN(C(=O)CCCc2c[nH]c3ccccc23)c2ccccc2N1`: the LC retention time turned out to be 12 min. As for `Nc1cc(=O)[nH]c(=S)n1C1CCCC1`, the figure is 8.94 min; as for `CN(C)C1CCNC1` (stereo not given), 6.6 min; as for `CCc1ccccn1`, 6.68 min. For the molecule `CCCCCCCCCC(=O)NCCCCC(=O)O`, the LC retention time was 13.5 min. For the molecule `Cc1ccc(-c2nc(-c3ccc(-c4ccccc4)cc3)[nH]c2-c2ccccc2)cc1C`, the LC retention time was determined as 15 min. Take `CCOC(=O)C(N)Cc1ccccc1` (stereo not given): the LC retention time came out at 9.03 min. Take `Cn1c(N)nc2nc[nH]c2c1=O`: the LC retention time came to 6.36 min. On to `CN1CCNCC1`, for which the LC retention time came out at 6.48 min. Turning to `O=C(CCCCCN1C(=O)c2ccccc2C1=O)NCc1ccccn1`, the LC retention time stood at 9.55 min. For the molecule `c1cn[nH]n1`, the LC retention time was 2.1 min. The figure for `COc1ccc(N2CC(C(=O)Nc3c(C)cc(C)cc3C)CC2=O)cc1` (stereo not given) is 12.5 min; for `COc1ccc2c(c1O)-c1cccc3c1C(C2)N(C)CC3` (stereo not given) it is 9.69 min. In the case of `CCCCNCC(=O)Nc1ccc(NC(=O)CNCCCC)cc1`, the LC retention time was determined as 8.26 min. As to `CC(C)c1ncc[nH]1`, the LC retention time came out at 6.64 min.

Regarding `c1ccc(-c2cc3cc4c(cc3[nH]2)OCO4)cc1`, the LC retention time was found to be 15.1 min. `Cc1cc(C(=O)N2CCCCC2)c2c(=O)n(CC(=O)N3CCc4ccccc43)c(=O)n(C)c2n1`: the LC retention time was determined as 13.5 min. As for `Cc1ccc(N2CCN(C(=O)C(c3ccccc3)c3ccccc3)CC2)cc1C`, the figure is 17.5 min; as for `Cc1ccc2[nH]c(-c3cc[n+](C)cc3)cc2c1`, 9.82 min; as for `c1cc(-c2noc(-c3cnccn3)n2)ccn1`, 8.8 min. With `O=C(NCCO)C(=O)NC(c1ccccc1)c1ccccc1`, the LC retention time worked out at 11.2 min. Turning to `COC(=O)C(N)c1ccccc1` (stereo not given), the LC retention time was found to be 7.62 min. For `CC(=O)c1c(C(C)=O)c(C)n(C)c1C`, the LC retention time turned out to be 8.65 min. Take `Nc1c2ccccc2nc2ccccc12`: the LC retention time came out at 8.38 min. Turning to `NCCCNCCNCCCN`, the LC retention time stood at 7.73 min. As for `NC(=O)c1ccccc1NC(=O)c1cc2c(n(-c3ccccc3)c1=O)CCCC2=O`, the LC retention time was found to be 10.5 min.

On to `COc1ccc(-c2ccccc2)cc1N`, for which the LC retention time is 11.6 min.

On to `CC1=NCC(=O)N1c1cccc(N)c1`, for which the LC retention time worked out at 7.1 min. On to `O=C1CC(N2CCN(C(c3ccccc3)c3ccccc3)CC2)C(=O)N1c1ccccc1` (stereo not given), for which the LC retention time turned out to be 11.2 min. As to `Cc1cc(C)c2c(=O)n(CC(=O)NCCCc3ccccc3)c(=O)n(C)c2n1`, the LC retention time was 14.1 min.

In the case of `CN1CCOCC1`, the LC retention time was found to be 3.96 min.

With `Cc1cccc(C)c1NC(=S)NCC(C)NC(=S)Nc1c(C)cccc1C` (stereo not given), the LC retention time came out at 13.9 min.

Consider `Cn1cc(C(=O)O)c2ccccc21`, for which the LC retention time worked out at 9.81 min. As for `CCOC(=O)C(=CNc1ccccc1N)C(=O)OCC`, the figure is 12.8 min. Take `Cn1c(=O)c2ccccc2n(CCN)c1=O`: the LC retention time was determined as 7.65 min.

Turning to `COC(=O)Cn1c(=O)c(-c2ccccc2)nc2ccccc21`, the LC retention time is 14.3 min. The figure for `Cc1ccc(C=C2C(=O)c3ccccc3C2=O)o1` is 15.1 min; for `O=C(NCCCCc1ccccc1)C(=O)NCc1ccco1` it is 14.3 min. As for `CC(=O)N=Nc1c(O)[nH]c2ccccc12`, the figure is 7.66 min. For the molecule `Nc1cccc2cc3ccccc3nc12`, the LC retention time was 8.34 min. As to `CC12CCC(O)CC1=CCC1C2CCC2(C)C(N)CCC12` (stereo not given), the LC retention time worked out at 8.88 min.

Consider `COc1nc(N2CCCC2)[nH]c(=O)n1`, for which the LC retention time came out at 7.43 min. For `Cc1ccc(C)nc1`, the LC retention time was 6.66 min. In the case of `Cc1cccc(NC(=O)C(Cc2c[nH]c3ccccc23)NC(=O)C(c2ccccc2)c2ccccc2)c1C` (stereo not given), the LC retention time is 16.7 min.

As for `Cc1ccc(NC2=NCCCS2)cc1`, the LC retention time is 8.91 min. As for `CCN(CC)C(=O)N1CCN(C)CC1`, the figure is 7.39 min; as for `NCCCSc1ccccc1`, 8.67 min; as for `O=c1ccc2ccccc2[nH]1`, 8.83 min. The figure for `CN(c1nc(-c2ccc(C(C)(C)C)cc2)nc2ccccc12)C1CCCCC1` is 15.8 min; for `CCCOC(=O)CCNc1n[nH]c(=O)[nH]c1=O` it is 8.44 min; for `CC(C)C[NH2+]C(CC(=O)O)c1ccccc1` (stereo not given) it is 8.51 min. The figure for `Nc1ccc(C(=O)NN=Cc2cccc3ccccc23)cc1` is 11.6 min. Regarding `Cc1ccccc1Nc1nc(Nc2ccccc2C)c2ccccc2n1`, the LC retention time came out at 12.5 min. Regarding `NC1C(O)OC(CO)C(O)C1O` (stereo not given), the LC retention time is 2.77 min.

With `C=CCN(C)C`, the LC retention time was determined as 5.73 min. For the molecule `C1CCC(NC2CCCCC2)CC1`, the LC retention time stood at 9.69 min. As for `Cc1[nH]c(C)c(C=O)c1C=O`, the figure is 7.42 min.

On to `CN1C(=O)C2CN(CCc3ccccc3)CNC2N(C)C1=O` (stereo not given), for which the LC retention time was 8.29 min. For the molecule `CN1CCOC1=O`, the LC retention time was determined as 3.96 min.

Take `Cc1sc(C)c(CNCC(C)C)c1CNCC(C)C`: the LC retention time turned out to be 8.93 min. In the case of `CC(C)(C)c1ccc(C(=O)N2CCN(Cc3ccccc3)CC2)cc1`, the LC retention time was 11.1 min. The figure for `Cc1ccoc1CC[N+](C)(C)C` is 7.96 min; for `Cc1cc2cc(N)ccc2n1C` it is 8.33 min. Regarding `C[N+](C)(C)CCOP(=O)(O)OP(=O)(O)OCC1OC(n2ccc(N)nc2=O)C(O)C1O` (stereo not given), the LC retention time was 1.63 min. As for `CC1(C)CC(=O)NC(=O)C1`, the figure is 7.12 min. For the molecule `CC(=O)NC(NC(C)=O)c1ccncc1`, the LC retention time is 5.53 min.

Consider `O=C1CCC(=O)N1c1ccc(S(=O)(=O)O)cc1`, for which the LC retention time was 1.56 min. For the molecule `COc1ccc(C2=C(N)C(=O)NC2=O)cc1OC`, the LC retention time was 8.69 min.

As for `CCCCCCCCCCCCCN`, the LC retention time was 14 min.

For the molecule `CC(C)c1ccccc1NC(=O)c1cc2ccccc2o1`, the LC retention time was determined as 15.9 min.

Consider `CC(C)(C(=O)O)c1ccc(C(O)CCCN2CCC(C(O)(c3ccccc3)c3ccccc3)CC2)cc1` (stereo not given), for which the LC retention time came to 11.5 min.

On to `Cc1cc(C(=O)N2CCCCC2)c2c(=O)n(CC(=O)Nc3ccccc3)c(=O)n(-c3ccccc3)c2n1`, for which the LC retention time was 13.5 min. As for `NC1=NC(=Nc2ccc3c(c2)OCCO3)c2ccccc21`, the figure is 9.45 min; as for `COc1ccc(C(=O)NCC(=O)NN)cc1OC`, 7.29 min. In the case of `CC1=NCCC1`, the LC retention time worked out at 4.35 min. As for `S=C(NCCc1c[nH]c2ccccc12)Nc1ccccc1`, the LC retention time was determined as 13.2 min. The figure for `NCc1cc2ccccc2o1` is 8.09 min; for `S=C1NCN(CCC2=CCCCC2)CN1` it is 10.2 min; for `COc1ccc(OC)c2c(C)cc(C)nc12` it is 8.94 min. Regarding `C#CC(C)(CC)NC(=O)Cc1ccccc1` (stereo not given), the LC retention time came to 12.2 min. As to `O=C1NCCc2c1[nH]c1ccccc21`, the LC retention time is 10.1 min. Turning to `Cc1ccc(C=NNC(=O)c2ccc(N)cc2)cc1`, the LC retention time is 10.3 min. On to `CC(=O)Nc1ccc(O)c(NC(C)=O)c1`, for which the LC retention time amounted to 6.39 min. As for `O=S(=O)(O)CCN1CCOCC1`, the figure is 1.67 min; as for `O=C(Nc1cccc(C2=NCCN2)c1)Nc1cccc(C2=NCCN2)c1`, 7.98 min; as for `COc1ccc(-c2cc(=O)c3ccc(OC)c(OC)c3o2)cc1OC`, 12.7 min.
